Values quoted from earlier work in patent US6875793B2, “Once-a-day controlled release sulfonylurea formulation” (Penwest Pharmaceuticals Co., priority 1997, dated 2005).

Columns and labels:
insulin secretion = details: after an oral dose, diabetic patients

In the case of CC(=O)c1ccc(S(=O)(=O)NC(=O)NC2CCCCC2)cc1 [Acetohexamide], the solubility in alcohol (alcohol) is listed as “slightly soluble”, the solubility in alkali (alkali, e.g., 0.1N sodium hydroxide, dilute solutions of alkali hydroxides) is listed as “soluble” and the solubility in water (water) is listed as “practically insoluble”.

In the case of CCCNC(=O)NS(=O)(=O)c1ccc(Cl)cc1 [Chlorpropamide], the “solubility in water at pH 6.0” value (water, pH 6.0) is given as 2.2 mg/ml and the “solubility in water at pH 7.3” value (water, pH 7.3) is given as “practically non-soluble”.

In the case of Cc1cnc(C(=O)NCCc2ccc(S(=O)(=O)NC(=O)NC3CCCCC3)cc2)cn1 [Glipizide], the “time to insulinotropic response to a meal” value (insulin secretion) is given as no more than 30 min.

In the case of COc1ccc(Cl)cc1C(=O)NCCc1ccc(S(=O)(=O)NC(=O)NC2CCCCC2)cc1 [Glyburide], the “solubility in organic solvents” value (organic solvents) is listed as “soluble” and the solubility in water (water) is listed as “sparingly soluble”.

For Cc1ccc(S(=O)(=O)NC(=O)NN2CCCCCC2)cc1 [Tolazamide], the “solubility at pH 6.0 (mean urinary pH)” value (pH 6.0) is listed as 27.8 mg per 100 ml and the solubility in water (water) is listed as “relatively insoluble”.

For CCCCNC(=O)NS(=O)(=O)c1ccc(C)cc1 [Tolbutamide], the solubility in water (water) is listed as “practically insoluble”.
